Results: patent US20250296953A1, “3,4-THIAZOLO-STEROIDS AND METHODS OF MAKING AND USING THE SAME” (Arkansas State University - Jonesboro, priority 2018, published 2025)

Key:
[1] = system: 60 different human tumor cell lines; assay: NCI Development Therapeutics Program 60 cell line screen, one dose; type: cell-based
SF-539 = assay: NCI 60 one dose screen; type: cell-based, human; settings: one dose; CNS Cancer; SF-539
glioblastoma (SF-295) = assay: NCI 60 five dose screen; settings: for CC50: read-out: LC50
[2] = Non-small Cell Lung Cancer, A549/ATCC
[3] = Non-small Cell Lung Cancer, EKVX
[4] = Non-small Cell Lung Cancer, HOP-62
[5] = Non-small Cell Lung Cancer, HOP-92
[6] = Non-small Cell Lung Cancer, NCI-H23
[7] = Non-small Cell Lung Cancer, NCI-H226
[8] = Non-small Cell Lung Cancer, NCI-H322M
[9] = Non-small Cell Lung Cancer, NCI-H460

## C[C@]12CCc3nc(N)sc3C1=CC[C@@H]1[C@@H]2CC[C@]2(C)C(=NNC(N)=O)CC[C@@H]12 [IVb.1]
[1]; Breast Cancer, BT-549
  Growth Percent: 107.48%
[1]; Breast Cancer, HS 578T
  Growth Percent: 36.38%
[1]; Breast Cancer, MCF7
  Growth Percent: −55.62%
[1]; Breast Cancer, MDA-MB-231/ATCC
  Growth Percent: 35.18%
[1]; Breast Cancer, MDA-MB-468
  Growth Percent: −46.23%
[1]; Breast Cancer, T-47D
  Growth Percent: −21.02%
[1]; CNS Cancer, SF-268
  Growth Percent: −6.41%
[1]; CNS Cancer, SNB-19
  Growth Percent: −9.98%
[1]; CNS Cancer, SNB-75
  Growth Percent: 99.02%
[1]; CNS Cancer, U251
  Growth Percent: −69.94%
[1]; Colon Cancer, COLO 205
  Growth Percent: 34.98%
[1]; Colon Cancer, HCC-2998
  Growth Percent: 63.85%
[1]; Colon Cancer, HCT-116
  Growth Percent: 6.35%
[1]; Colon Cancer, HT29
  Growth Percent: 13.20%
[1]; Colon Cancer, KM12
  Growth Percent: 20.47%
[1]; Colon Cancer, SW-620
  Growth Percent: −59.20%
[1]; Leukemia, CCRF-CEM
  Growth Percent: −5.86%
[1]; Leukemia, HL-60(TB)
  Growth Percent: 42.82%
[1]; Leukemia, K-562
  Growth Percent: −38.55%
[1]; Leukemia, MOLT-4
  Growth Percent: 13.35%
[1]; Leukemia, RPMI-8226
  Growth Percent: −6.28%
[1]; Leukemia, SR
  Growth Percent: −21.79%
[1]; Melanoma, LOX IMVI
  Growth Percent: −67.61%
[1]; Melanoma, M14
  Growth Percent: −51.14%
[1]; Melanoma, MALME-3M
  Growth Percent: 3.07%
[1]; Melanoma, MDA-MB-435
  Growth Percent: −58.82%
[1]; Melanoma, SK-MEL-5
  Growth Percent: 20.55%
[1]; Melanoma, SK-MEL-28
  Growth Percent: 13.00%
[1]; Melanoma, UACC-62
  Growth Percent: 38.92%
[1]; Melanoma, UACC-257
  Growth Percent: 105.26%
[1]; [2]
  Growth Percent: 0.92%
[1]; [3]
  Growth Percent: −4.54%
[1]; [4]
  Growth Percent: 75.49%
[1]; [5]
  Growth Percent: 46.57%
[1]; [6]
  Growth Percent: −44.30%
[1]; [7]
  Growth Percent: 107.87%
[1]; [8]
  Growth Percent: 52.42%
[1]; [9]
  Growth Percent: −38.65%
[1]; Ovarian Cancer, IGROV1
  Growth Percent: 2.90%
[1]; Ovarian Cancer, NCI/ADR-RES
  Growth Percent: −5.32%
[1]; Ovarian Cancer, OVCAR-3
  Growth Percent: −32.35%
[1]; Ovarian Cancer, OVCAR-4
  Growth Percent: −19.07%
[1]; Ovarian Cancer, OVCAR-5
  Growth Percent: 72.93%
[1]; Ovarian Cancer, OVCAR-8
  Growth Percent: −2.26%
[1]; Ovarian Cancer, SK-OV-3
  Growth Percent: 100.67%
[1]; Prostate Cancer, PC-3
  Growth Percent: 57.29%
[1]; Renal Cancer, 786-0
  Growth Percent: −9.65%
[1]; Renal Cancer, A498
  Growth Percent: 91.62%
[1]; Renal Cancer, ACHN
  Growth Percent: 32.38%
[1]; Renal Cancer, CAKI-1
  Growth Percent: 62.97%
[1]; Renal Cancer, RXF 393
  Growth Percent: 7.08%
[1]; Renal Cancer, SN12C
  Growth Percent: 18.09%
[1]; Renal Cancer, TK-10
  Growth Percent: 49.21%
[1]; Renal Cancer, UO-31
  Growth Percent: 85.84%
SF-539
  Growth Percent: 87.19%
Glioblastoma (SF-295); SF-295 (CNS Cancer), five dose
  GI50: 1610 nM
  TGI: 3.03E−6
  CC50: 5710 nM

## (1S,2R,13R,14S,18S)-7-(3-fluoroanilino)-2,18-dimethyl-6-thia-8-azapentacyclo[11.7.0.02,10.05,9.014,18]icosa-5(9),7,10-trien-17-one [IIa.8]
[1]; Breast Cancer, BT-549
  Growth Percent: −8.61%
[1]; Breast Cancer, HS 578T
  Growth Percent: 35.44%
[1]; Breast Cancer, MCF7
  Growth Percent: 4.46%
[1]; Breast Cancer, MDA-MB-231/ATCC
  Growth Percent: 38.20%
[1]; Breast Cancer, MDA-MB-468
  Growth Percent: −2.99%
[1]; Breast Cancer, T-47D
  Growth Percent: −0.76%
[1]; CNS Cancer, SF-268
  Growth Percent: 55.66%
[1]; CNS Cancer, SNB-19
  Growth Percent: 62.83%
[1]; CNS Cancer, SNB-75
  Growth Percent: 18.66%
[1]; CNS Cancer, U251
  Growth Percent: 15.66%
[1]; Colon Cancer, COLO 205
  Growth Percent: 47.59%
[1]; Colon Cancer, HCC-2998
  Growth Percent: 75.50%
[1]; Colon Cancer, HCT-116
  Growth Percent: −68.78%
[1]; Colon Cancer, HT29
  Growth Percent: −3.32%
[1]; Colon Cancer, KM12
  Growth Percent: 38.74%
[1]; Colon Cancer, SW-620
  Growth Percent: 4.62%
[1]; Leukemia, CCRF-CEM
  Growth Percent: 4.95%
[1]; Leukemia, HL-60(TB)
  Growth Percent: 8.58%
[1]; Leukemia, K-562
  Growth Percent: −0.51%
[1]; Leukemia, MOLT-4
  Growth Percent: −3.78%
[1]; Leukemia, RPMI-8226
  Growth Percent: −22.26%
[1]; Leukemia, SR
  Growth Percent: −11.87%
[1]; Melanoma, LOX IMVI
  Growth Percent: 6.22%
[1]; Melanoma, M14
  Growth Percent: 44.82%
[1]; Melanoma, MALME-3M
  Growth Percent: 22.82%
[1]; Melanoma, MDA-MB-435
  Growth Percent: 35.93%
[1]; Melanoma, SK-MEL-2
  Growth Percent: 21.81%
[1]; Melanoma, SK-MEL-5
  Growth Percent: 32.06%
[1]; Melanoma, SK-MEL-28
  Growth Percent: 39.44%
[1]; Melanoma, UACC-62
  Growth Percent: 37.50%
[1]; Melanoma, UACC-257
  Growth Percent: 73.04%
[1]; [2]
  Growth Percent: 35.39%
[1]; [3]
  Growth Percent: 46.43%
[1]; [4]
  Growth Percent: 20.40%
[1]; [5]
  Growth Percent: 68.93%
[1]; [6]
  Growth Percent: 55.09%
[1]; [7]
  Growth Percent: 71.91%
[1]; [8]
  Growth Percent: 55.83%
[1]; [9]
  Growth Percent: 51.98%
[1]; Ovarian Cancer, IGROV1
  Growth Percent: 60.02%
[1]; Ovarian Cancer, NCI/ADR-RES
  Growth Percent: 55.43%
[1]; Ovarian Cancer, OVCAR-3
  Growth Percent: −5.24%
[1]; Ovarian Cancer, OVCAR-4
  Growth Percent: 59.21%
[1]; Ovarian Cancer, OVCAR-5
  Growth Percent: 65.53%
[1]; Ovarian Cancer, OVCAR-8
  Growth Percent: 39.56%
[1]; Ovarian Cancer, SK-OV-3
  Growth Percent: −18.44%
[1]; Prostate Cancer, DU-145
  Growth Percent: 17.23%
[1]; Renal Cancer, 786-0
  Growth Percent: −13.93%
[1]; Renal Cancer, A498
  Growth Percent: 22.95%
[1]; Renal Cancer, ACHN
  Growth Percent: 1.56%
[1]; Renal Cancer, CAKI-1
  Growth Percent: 50.45%
[1]; Renal Cancer, RXF 393
  Growth Percent: −28.44%
[1]; Renal Cancer, SN12C
  Growth Percent: 28.50%
[1]; Renal Cancer, TK-10
  Growth Percent: 20.27%
[1]; Renal Cancer, UO-31
  Growth Percent: −26.89%
SF-539
  Growth Percent: −5.93%
Glioblastoma (SF-295); SF-295 (CNS Cancer), five dose
  GI50: 1190 nM
  TGI: 2.97E−6
  CC50: 7370 nM
Glioblastoma (SF-295); glioblastoma SF-295
  GI50: 1190 nM
